Laboratory results from US12098148B2, “Therapeutic compounds” (C4X Discovery Limited, priority 2018, dated 2024).

How the values were obtained:
[1] = tested on: NQO1 mRNA in BEAS-2B cells; test: Beas2B NQO1 mRNA cell based assay; parameters: species or system human; conditions: Homo sapiens, BEAS-2B, 24 h, 24 h compound treatment, increase in NQO1 mRNA vs vehicle (0.1% DMSO), read-out: EC50
Procedure, shortened: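 BEAS-2B human bronchial epithelial cells exposed to compound for 24 h at 37 °C, 5% CO2. NQO1 mRNA measured by one-step TaqMan RT-qPCR on unpurified lysates, normalized to β-actin; relative expression by ΔΔCT method.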

[2] = biological target: human KEAP1 (N-term, residues 321-609) (Homo sapiens, UniProt Q14145); test: biochemical;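 further: fluorescence polarization competition assay of Kelch domain binding to NRF2, 12-point 1:3 dilution series from 10 µM, read after 1 h at room temperature, floor 10 nM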
human KEAP1 (N-term, residues 321-609), sequence (Q14145 321-609): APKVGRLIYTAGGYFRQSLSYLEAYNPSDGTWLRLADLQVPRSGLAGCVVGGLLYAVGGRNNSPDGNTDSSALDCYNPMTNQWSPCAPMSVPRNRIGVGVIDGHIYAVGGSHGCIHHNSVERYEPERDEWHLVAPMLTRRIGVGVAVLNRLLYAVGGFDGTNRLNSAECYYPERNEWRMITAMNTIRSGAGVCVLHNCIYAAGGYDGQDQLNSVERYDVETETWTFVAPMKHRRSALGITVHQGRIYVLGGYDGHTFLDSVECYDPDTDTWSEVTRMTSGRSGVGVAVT

| SMILES | EC50 [1] [nM] | IC50 [2] [nM] |
| --- | --- | --- |
| O=C(O)[C@H]1CCCC[C@H]1C(=O)N1CCc2c(Cl)ccc(OCc3nnc4ccccn34)c2[C@H]1CN1CCCC1=O [Example 94, (1S,2R)-2-((S)-8-([1,2,4]Triazolo[4,3-a]pyridin-3-ylmethoxy)-5-chloro-1-((2-oxopyrrolidin-1-yl)methyl)-1,2,3,4-tetrahydroisoquinoline-2-carbonyl) cyclohexane-1-carboxylic acid] | 7.8 | 7.7 |
| Cc1noc2nc(COc3ccc(Cl)c4c3[C@@H](CN3CCCC3=O)N(C(=O)[C@@H]3CCCC[C@@H]3C(=O)O)CC4)ccc12 [Example 95, (1S,2R)-2-((S)-5-Chloro-8-((3-methylisoxazolo[5,4-b]pyridin-6-yl)methoxy)-1-((2-oxopyrrolidin-1-yl)methyl)-1,2,3,4-tetrahydroisoquinoline-2-carbonyl) cyclohexane-1-carboxylic acid] | 3.7 | 8 |
| Cn1nnc(COc2ccc(Cl)c3c2[C@@H](CN2CCCC2=O)N(C(=O)C2C4CCC(C4)C2C(=O)O)CC3)c1C(F)F (stereo partly drawn) [Example 96, 3-((S)-5-Chloro-8-((5-(difluoromethyl)-1-methyl-1H-1,2,3-triazol-4-yl)methoxy)-1-((2-oxopyrrolidin-1-yl)methyl)-1,2,3,4-tetrahydroisoquinoline-2-carbonyl)bicyclo[2.2.1]heptane-2-carboxylic acid] | 210 | 18 |
| Cn1nnc(COc2ccc(Cl)c3c2[C@@H](CN2CCCC2=O)N(C(=O)C2CCOC2C(=O)O)CC3)c1C(F)F (stereo partly drawn) [Example 97, 3-((S)-5-chloro-8-((5-(difluoromethyl)-1-methyl-1H-1,2,3-triazol-4-yl)methoxy)-1-((2-oxopyrrolidin-1-yl)methyl)-1,2,3,4-tetrahydroisoquinoline-2-carbonyl) tetrahydrofuran-2-carboxylic acid] | 750 | 17 |
| Cn1nc(COc2ccc(Cl)c3c2[C@@H](CN2CCCC2=O)N(C(=O)[C@@H]2CCCC[C@@H]2C(=O)O)CC3)c2ccccc21 [Example 98, (1S,2R)-2-((S)-5-Chloro-8-((1-methyl-1H-indazol-3-yl)methoxy)-1-((2-oxopyrrolidin-1-yl)methyl)-1,2,3,4-tetrahydroisoquinoline-2-carbonyl) cyclohexane-1-carboxylic acid] | 330 | 10 |
| Cn1cnc2ccc(COc3ccc(Cl)c4c3[C@@H](CN3CCCC3=O)N(C(=O)[C@@H]3CCCC[C@@H]3C(=O)O)CC4)nc21 [Example 99, (1S,2R)-2-((S)-5-chloro-8-((3-methyl-3H-imidazo [4,5-b]pyridin-5-yl)methoxy)-1-((2-oxopyrrolidin-1-yl)methyl)-1,2,3,4-tetrahydroisoquinoline-2-carbonyl) cyclohexane-1-carboxylic acid] | 520 | 9.7 |
| C[C@]1(C(=O)O)CCCC[C@H]1C(=O)N1CCc2c(Cl)ccc(OCc3noc4ccccc34)c2[C@H]1CN1CCCC1=O [Example 100, (1S,2R)-2-((S)-8-(benzo[d]isoxazol-3-ylmethoxy)-5-chloro-1-((2-oxopyrrolidin-1-yl)methyl)-1,2,3,4-tetrahydroisoquinoline-2-carbonyl)-1-methylcyclohexane-1-carboxylic acid] | 3.4 | 5.1 |
| Cn1nnc(COc2ccc(Cl)c3c2[C@@H](CN2CCCC2=O)N(C(=O)C2CC(F)(F)CC2C(=O)O)CC3)c1C(F)F (stereo partly drawn) [Example 101, 2-((S)-5-chloro-8-((5-(difluoromethyl)-1-methyl-1H-1,2,3-triazol-4-yl)methoxy)-1-((2-oxopyrrolidin-1-yl)methyl)-1,2,3,4-tetrahydroisoquinoline-2-carbonyl)-4,4-difluorocyclopentane-1-carboxylic acid] | 710 | 1900 |
| Cn1nnc(COc2ccc(Cl)c3c2[C@@H](CN2CCCC2=O)N(C(=O)[C@@H]2CCC[C@]2(C)C(=O)O)CC3)c1C(F)F [Example 102, (1S,2R)-2-((S)-5-chloro-8-((5-(difluoromethyl)-1-methyl-1H-1,2,3-triazol-4-yl)methoxy)-1-((2-oxopyrrolidin-1-yl)methyl)-1,2,3,4-tetrahydroisoquinoline-2-carbonyl)-1-methylcyclopentane-1-carboxylic acid] | 1 | 4.8 |
| Cc1nnc(COc2ccc(Cl)c3c2[C@@H](CN2CCCC2=O)N(C(=O)[C@@H]2CCCC[C@@H]2C(=O)O)CC3)n1C [Example 103, (1S,2R)-2-((S)-5-chloro-8-((4,5-dimethyl-4H-1,2,4-triazol-3-yl)methoxy)-1-((2-oxopyrrolidin-1-yl)methyl)-1,2,3,4-tetrahydroisoquinoline-2-carbonyl) cyclohexane-1-carboxylic acid] | 67 | 6.7 |
| Cn1cc(COc2ccc(Cl)c3c2[C@@H](CN2CCCC2=O)N(C(=O)[C@@H]2CCCC[C@@H]2C(=O)O)CC3)nn1 [Example 104, (1S,2R)-2-((S)-5-Chloro-8-((1-methyl-1H-1,2,3-triazol-4-yl)methoxy)-1-((2-oxopyrrolidin-1-yl)methyl)-1,2,3,4-tetrahydroisoquinoline-2-carbonyl)cyclohexane-1-carboxylic acid] | 27 | 5.5 |
| Cn1nnc(COc2ccc(Cl)c3c2[C@@H](CN2CCCC2=O)N(C(=O)[C@@H]2CCCC[C@]2(F)C(=O)O)CC3)c1C(F)F [Example 105, (1R,2S)-2-((S)-5-Chloro-8-((5-(difluoromethyl)-1-methyl-1H-1,2,3-triazol-4-yl)methoxy)-1-((2-oxopyrrolidin-1-yl)methyl)-1,2,3,4-tetrahydroisoquinoline-2-carbonyl)-1-fluorocyclohexane-1-carboxylic acid] | 24 | 7.1 |
| Cn1cc(COc2ccc(Cl)c3c2[C@@H](CN2CCCC2=O)N(C(=O)[C@@H]2CCCC[C@]2(C)C(=O)O)CC3)nn1 [Example 106, (1S,2R)-2-((S)-5-chloro-8-((1-methyl-1H-1,2,3-triazol-4-yl)methoxy)-1-((2-oxopyrrolidin-1-yl)methyl)-1,2,3,4-tetrahydroisoquinoline-2-carbonyl)-1-methylcyclohexane-1-carboxylic acid] | 2.9 | 5.1 |
| Cc1c(COc2ccc(Cl)c3c2[C@@H](CN2CCCC2=O)N(C(=O)[C@@H]2CCCC[C@]2(C)C(=O)O)CC3)nnn1C [Example 107, (1S,2R)-2-((S)-5-Chloro-8-((1,5-dimethyl-1H-1,2,3-triazol-4-yl)methoxy)-1-((2-oxopyrrolidin-1-yl)methyl)-1,2,3,4-tetrahydroisoquinoline-2-carbonyl)-1-methylcyclohexane-1-carboxylic acid] | 0.35 | 6.6 |
| Cn1nnc(COc2ccc(Cl)c3c2[C@@H](CN2CCCC2=O)N(C(=O)[C@@H]2CCCC[C@]2(C)C(=O)O)CC3)c1C(F)(F)F [Example 108, (1S,2R)-2-((S)-5-Chloro-8-((1-methyl-5-(trifluoromethyl)-1H-1,2,3-triazol-4-yl)methoxy)-1-((2-oxopyrrolidin-1-yl)methyl)-1,2,3,4-tetrahydroisoquinoline-2-carbonyl)-1-methylcyclohexane-1-carboxylic acid] | 1.5 | 5.9 |
| C[C@@H]1CC(=O)N(C[C@@H]2c3c(OCc4nnn(C)c4C(F)F)ccc(Cl)c3CCN2C(=O)[C@@H]2CCC[C@]2(C)C(=O)O)C1 [Example 109, (1S,2R)-2-((S)-5-Chloro-8-((5-(difluoromethyl)-1-methyl-1H-1,2,3-triazol-4-yl)methoxy)-1-(((R)-4-methyl-2-oxopyrrolidin-1-yl)methyl)-1,2,3,4-tetrahydroisoquinoline-2-carbonyl)-1-methylcyclopentane-1-carboxylic acid] | 7.4 | 9.7 |
| Cn1nnc(COc2ccc(Cl)c3c2[C@@H](CN2CC4(CC4)CC2=O)N(C(=O)[C@@H]2CCC[C@]2(C)C(=O)O)CC3)c1C(F)F [Example 110, (1S,2R)-2-((S)-5-Chloro-8-((5-(difluoromethyl)-1-methyl-1H-1,2,3-triazol-4-yl)methoxy)-1-((6-oxo-5-azaspiro[2.4]heptan-5-yl)methyl)-1,2,3,4-tetrahydroisoquinoline-2-carbonyl)-1-methylcyclopentane-1-carboxylic acid] | 1.3 | 6.3 |
| C[C@@H]1CC(=O)N(C[C@@H]2c3c(OCc4nnn(C)c4C(F)F)ccc(Cl)c3CCN2C(=O)[C@@H]2CCCC[C@]2(C)C(=O)O)C1 [Example 111, (1S)-2-((S)-5-Chloro-8-((5-(difluoromethyl)-1-methyl-1H-1,2,3-triazol-4-yl)methoxy)-1-1-(((R)-4-methyl-2-oxopyrrolidin-1-yl)methyl)-1,2,3,4-tetrahydroisoquinoline-2-carbonyl)-1-methylcyclohexane-1-carboxylic acid] | 2.5 | 6.1 |
| C[C@@H]1CCN(C[C@@H]2c3c(OCc4nnn(C)c4C(F)F)ccc(Cl)c3CCN2C(=O)[C@@H]2CCCC[C@]2(C)C(=O)O)C1=O [Example 112, (1S,2R)-2-((S)-5-Chloro-8-((5-(difluoromethyl)-1-methyl-1H-1,2,3-triazol-4-yl)methoxy)-1-(((R)-3-methyl-2-oxopyrrolidin-1-yl)methyl)-1,2,3,4-tetrahydroisoquinoline-2-carbonyl)-1-methylcyclohexane-1-carboxylic acid] | 280 | 9.4 |
| C[C@@H]1CCN(C[C@@H]2c3c(OCc4nnn(C)c4C(F)F)ccc(Cl)c3CCN2C(=O)[C@@H]2CCC[C@]2(C)C(=O)O)C1=O [Example 113, (1S,2R)-2-((1S)-5-Chloro-8-((5-(difluoromethyl)-1-methyl-1H-1,2,3-triazol-4-yl)methoxy)-1-(((R)-3-methyl-2-oxopyrrolidin-1-yl)methyl)-1,2,3,4-tetrahydroisoquinoline-2-carbonyl)-1-methylcyclopentane-1-carboxylic acid] | 240 | 10 |
